Experimental data from ChEMBL document CHEMBL2384969, “Discovery and Optimization of Potent GPR40 Full Agonists Containing Tricyclic Spirocycles” (ACS Med Chem Lett, 2013).
pEC50: −log10 of the molar value. Calls of active or inactive are those of the source. No cut-off for these calls is given here.

Assays:
[1] = target: T1, Free fatty acid receptor 1 (Homo sapiens, UniProt O14842); assay: Agonist activity at human FFA1 receptor expressed in CHO cell membranes after 4 hrs by aequorin bioluminescence assay relative to AM-1638; type: cell-based
T1 sequence (O14842 whole entry): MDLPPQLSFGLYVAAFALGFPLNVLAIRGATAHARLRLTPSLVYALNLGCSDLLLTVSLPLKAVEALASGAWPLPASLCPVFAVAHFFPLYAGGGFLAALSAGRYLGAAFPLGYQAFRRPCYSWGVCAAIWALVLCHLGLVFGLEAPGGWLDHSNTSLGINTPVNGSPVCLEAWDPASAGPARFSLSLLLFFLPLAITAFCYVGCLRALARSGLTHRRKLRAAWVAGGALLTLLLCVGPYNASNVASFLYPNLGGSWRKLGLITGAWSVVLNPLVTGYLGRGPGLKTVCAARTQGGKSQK

[2] = target: T1, Free fatty acid receptor 1; assay: Agonist activity at human FFA1 receptor expressed in CHO cell membranes after 4 hrs by aequorin bioluminescence assay; type: cell-based
Mus musculus [3] = assay: Antidiabetic activity in high-fat diet fed streptozotocin-induced C57BL/6J mouse at 60 mg/kg, po by oral glucose tolerance test; type: functional, organism-based; set-up: dose 60 mg/kg
[4] = Volume of distribution at steady state in cynomolgus monkey at 0.5 mg/kg, iv; type: ADME, organism-based, Macaca fascicularis; set-up: dose 0.5 mg/kg, route intravenous; conditions: in vivo, read-out: Vdss
[5] = target: T2, Gastrin/cholecystokinin type B receptor (Homo sapiens) (UniProt P32239); assay: Inhibition of human CCK2 receptor at 10 uM relative to control
T2 sequence (whole entry): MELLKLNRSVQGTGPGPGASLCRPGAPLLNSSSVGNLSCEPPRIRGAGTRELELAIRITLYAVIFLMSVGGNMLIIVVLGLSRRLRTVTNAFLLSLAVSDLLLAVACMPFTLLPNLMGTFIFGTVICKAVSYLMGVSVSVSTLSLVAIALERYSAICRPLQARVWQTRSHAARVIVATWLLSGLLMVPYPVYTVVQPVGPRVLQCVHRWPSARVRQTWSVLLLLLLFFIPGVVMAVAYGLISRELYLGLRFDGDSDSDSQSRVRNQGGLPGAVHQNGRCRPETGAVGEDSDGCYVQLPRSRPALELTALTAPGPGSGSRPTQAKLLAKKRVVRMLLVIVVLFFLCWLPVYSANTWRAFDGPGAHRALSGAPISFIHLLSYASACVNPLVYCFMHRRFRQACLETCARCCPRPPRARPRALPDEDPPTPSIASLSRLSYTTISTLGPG

[6] = target: T3, Adenosine receptor A1 (Homo sapiens) (UniProt P30542); assay: Inhibition of human adenosine A1 receptor at 10 uM relative to control
T3 sequence (whole entry): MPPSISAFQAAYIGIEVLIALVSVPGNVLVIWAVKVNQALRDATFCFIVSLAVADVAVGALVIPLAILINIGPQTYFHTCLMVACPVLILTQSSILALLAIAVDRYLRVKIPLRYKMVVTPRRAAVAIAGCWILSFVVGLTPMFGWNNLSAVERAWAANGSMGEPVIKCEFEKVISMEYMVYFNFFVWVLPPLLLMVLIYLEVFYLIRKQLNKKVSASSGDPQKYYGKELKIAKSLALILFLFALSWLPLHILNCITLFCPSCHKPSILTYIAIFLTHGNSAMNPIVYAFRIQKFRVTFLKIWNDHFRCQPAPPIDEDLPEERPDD

[7] = Oral bioavailability in Sprague-Dawley rat at 2 mg/kg; type: ADME, organism-based; conditions: in vivo
[8] = target: D(1A) dopamine receptor (Homo sapiens) (UniProt P21728); assay: Inhibition of human dopamine D1 receptor at 10 uM relative to control
D(1A) dopamine receptor (Homo sapiens), sequence (P21728 whole entry): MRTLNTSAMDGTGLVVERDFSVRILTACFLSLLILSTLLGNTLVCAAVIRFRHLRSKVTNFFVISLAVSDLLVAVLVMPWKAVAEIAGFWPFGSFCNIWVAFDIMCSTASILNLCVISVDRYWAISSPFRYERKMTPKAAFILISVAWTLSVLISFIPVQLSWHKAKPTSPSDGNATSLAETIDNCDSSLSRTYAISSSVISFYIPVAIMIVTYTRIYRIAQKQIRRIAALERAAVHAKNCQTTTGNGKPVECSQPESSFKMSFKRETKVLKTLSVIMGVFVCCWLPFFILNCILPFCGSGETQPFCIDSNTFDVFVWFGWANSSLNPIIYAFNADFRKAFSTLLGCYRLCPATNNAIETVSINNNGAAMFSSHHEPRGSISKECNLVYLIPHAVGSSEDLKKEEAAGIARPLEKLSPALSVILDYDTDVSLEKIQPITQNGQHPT

[9] = Volume of distribution at steady state in Sprague-Dawley rat at 0.5 mg/kg, iv; type: ADME, organism-based; set-up: dose 0.5 mg/kg, route intravenous; conditions: in vivo, read-out: Vdss
[10] = target: Kappa-type opioid receptor (Rattus norvegicus) (UniProt P34975); assay: Inhibition of rat kappa opioid receptor at 10 uM relative to control
Kappa-type opioid receptor (Rattus norvegicus), sequence (P34975 whole entry): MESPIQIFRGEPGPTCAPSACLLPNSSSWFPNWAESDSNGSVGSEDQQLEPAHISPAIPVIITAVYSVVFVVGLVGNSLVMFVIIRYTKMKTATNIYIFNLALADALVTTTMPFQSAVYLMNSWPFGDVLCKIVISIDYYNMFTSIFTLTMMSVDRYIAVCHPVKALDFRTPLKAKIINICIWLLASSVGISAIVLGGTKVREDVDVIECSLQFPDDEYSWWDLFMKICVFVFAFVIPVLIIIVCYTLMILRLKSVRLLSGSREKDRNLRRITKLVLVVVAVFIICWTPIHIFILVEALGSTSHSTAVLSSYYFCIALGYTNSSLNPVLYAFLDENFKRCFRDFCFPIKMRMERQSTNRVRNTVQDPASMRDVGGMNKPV

[11] = target: Histamine H4 receptor (Homo sapiens) (UniProt Q9H3N8); assay: Inhibition of human histamine H4 receptor at 10 uM relative to control
Histamine H4 receptor (Homo sapiens), sequence (Q9H3N8 whole entry): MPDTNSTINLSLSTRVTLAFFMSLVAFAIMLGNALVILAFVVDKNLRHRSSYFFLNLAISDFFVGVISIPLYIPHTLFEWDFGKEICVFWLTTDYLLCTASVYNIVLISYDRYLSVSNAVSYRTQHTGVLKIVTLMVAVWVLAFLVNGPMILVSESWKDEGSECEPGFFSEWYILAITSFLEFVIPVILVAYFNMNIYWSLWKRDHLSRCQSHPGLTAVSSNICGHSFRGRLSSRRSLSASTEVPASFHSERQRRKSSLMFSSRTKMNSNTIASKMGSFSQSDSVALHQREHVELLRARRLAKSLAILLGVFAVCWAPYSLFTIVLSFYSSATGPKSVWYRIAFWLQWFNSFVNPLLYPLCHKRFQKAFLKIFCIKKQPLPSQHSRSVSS

[12] = target: Sodium-dependent noradrenaline transporter (Homo sapiens) (UniProt P23975); assay: Inhibition of human norepinephrine transporter at 10 uM relative to control
Sodium-dependent noradrenaline transporter (Homo sapiens), sequence (P23975 whole entry): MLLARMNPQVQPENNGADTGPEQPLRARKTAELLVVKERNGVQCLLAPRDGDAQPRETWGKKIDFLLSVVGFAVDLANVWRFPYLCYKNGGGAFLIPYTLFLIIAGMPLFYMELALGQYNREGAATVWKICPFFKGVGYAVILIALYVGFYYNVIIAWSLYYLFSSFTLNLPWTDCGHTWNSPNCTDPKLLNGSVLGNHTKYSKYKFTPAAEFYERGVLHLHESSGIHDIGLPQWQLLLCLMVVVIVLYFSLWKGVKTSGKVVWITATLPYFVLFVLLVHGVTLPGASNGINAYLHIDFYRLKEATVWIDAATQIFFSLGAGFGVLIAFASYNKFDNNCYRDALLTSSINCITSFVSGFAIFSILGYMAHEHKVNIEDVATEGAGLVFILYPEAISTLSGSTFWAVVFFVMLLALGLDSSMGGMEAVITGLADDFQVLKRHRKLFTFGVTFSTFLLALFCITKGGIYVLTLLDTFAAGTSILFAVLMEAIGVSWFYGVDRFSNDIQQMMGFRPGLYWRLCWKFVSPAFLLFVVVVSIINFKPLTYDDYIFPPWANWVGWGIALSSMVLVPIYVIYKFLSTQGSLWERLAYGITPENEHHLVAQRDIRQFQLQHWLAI

[13] = target: T4, Thyrotropin-releasing hormone receptor (Homo sapiens) (UniProt P34981); assay: Inhibition of human TRH1 receptor at 10 uM relative to control
T4 sequence (whole entry): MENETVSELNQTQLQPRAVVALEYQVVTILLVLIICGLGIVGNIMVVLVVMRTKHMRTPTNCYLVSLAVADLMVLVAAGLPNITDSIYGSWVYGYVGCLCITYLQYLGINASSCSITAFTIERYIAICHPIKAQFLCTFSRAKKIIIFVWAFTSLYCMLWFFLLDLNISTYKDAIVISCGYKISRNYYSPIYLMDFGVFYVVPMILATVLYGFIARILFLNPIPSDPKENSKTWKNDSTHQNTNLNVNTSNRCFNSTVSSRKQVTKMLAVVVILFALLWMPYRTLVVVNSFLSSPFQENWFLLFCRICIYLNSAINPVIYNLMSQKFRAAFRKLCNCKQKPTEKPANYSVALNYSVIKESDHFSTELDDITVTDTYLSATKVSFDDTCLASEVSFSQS

[14] = target: Free fatty acid receptor 1 (Rattus norvegicus) (UniProt Q8K3T4); assay: Agonist activity at FFA1 receptor in Sprague-Dawley rat fetal intestinal cells assessed as stimulation of GIP secretion after 1 hr by ELISA relative to AM-1638
Free fatty acid receptor 1 (Rattus norvegicus), sequence (Q8K3T4 whole entry): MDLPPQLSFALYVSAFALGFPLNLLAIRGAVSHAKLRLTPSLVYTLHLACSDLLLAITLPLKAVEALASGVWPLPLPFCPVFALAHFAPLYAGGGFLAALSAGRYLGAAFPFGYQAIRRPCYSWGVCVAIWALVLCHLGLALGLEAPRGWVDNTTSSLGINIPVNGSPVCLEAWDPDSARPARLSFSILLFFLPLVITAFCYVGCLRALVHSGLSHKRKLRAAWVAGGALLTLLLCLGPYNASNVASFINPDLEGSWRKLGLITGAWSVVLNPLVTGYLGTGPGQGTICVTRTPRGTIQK

[15] = target: T1, Free fatty acid receptor 1; assay: Positive cooperativite binding to human FFA1 receptor expressed in CHO cell membranes assessed as enhancement of specific binding of [3H]AMG 837 by reciprocal competition assay
[16] = Half life in Sprague-Dawley rat at 0.5 mg/kg, iv; type: ADME, organism-based; set-up: dose 0.5 mg/kg, route intravenous; conditions: in vivo
[17] = Clearance in Sprague-Dawley rat at 0.5 mg/kg, iv; type: ADME, organism-based; set-up: dose 0.5 mg/kg, route intravenous; conditions: in vivo
Mus musculus [18] = assay: Antidiabetic activity in high-fat diet fed streptozotocin-induced C57BL/6J mouse assessed as increase in insulin secretion at 30 mg/kg, po by oral glucose tolerance test; type: functional, organism-based; set-up: dose 30 mg/kg
[19] = Oral bioavailability in cynomolgus monkey at 2 mg/kg; type: ADME, organism-based, Macaca fascicularis; conditions: in vivo
Pancreatic islet [20] = assay: Potentiation of glucose-stimulated insulin secretion in human pancreatic islets at 0.01 uM to 10 uM; type: functional
[21] = target: Free fatty acid receptor 1 (Rattus norvegicus) (UniProt Q8K3T4); assay: Agonist activity at FFA1 receptor in Sprague-Dawley rat fetal intestinal cells assessed as stimulation of GIP secretion after 1 hr by ELISA
[22] = target: Free fatty acid receptor 1 (Rattus norvegicus) (UniProt Q8K3T4); assay: Agonist activity at FFA1 receptor in Sprague-Dawley rat fetal intestinal cells assessed as stimulation of GLP1 secretion after 1 hr by ELISA relative to AM-1638
Pancreatic islet [23] = assay: Potentiation of glucose-stimulated insulin secretion in mouse pancreatic islets at 0.01 uM to 10 uM; type: functional
[24] = target: Free fatty acid receptor 1 (Rattus norvegicus) (UniProt Q8K3T4); assay: Agonist activity at FFA1 receptor in Sprague-Dawley rat fetal intestinal cells assessed as stimulation of GLP1 secretion after 1 hr by ELISA
[25] = Clearance in cynomolgus monkey at 0.5 mg/kg, iv; type: ADME, organism-based, Macaca fascicularis; set-up: dose 0.5 mg/kg, route intravenous; conditions: in vivo
[26] = Half life in cynomolgus monkey at 0.5 mg/kg, iv; type: ADME, organism-based, Macaca fascicularis; set-up: dose 0.5 mg/kg, route intravenous; conditions: in vivo
Mus musculus [27] = assay: Antidiabetic activity in high-fat diet fed streptozotocin-induced C57BL/6J mouse assessed as improvement in glucose AUC at 30 mg/kg, po by oral glucose tolerance test relative to control; type: functional

SMILES: COc1ccc(F)c(-c2ccc(COc3ccc4c(c3)[C@]3(CC4)CC[C@H]3C(=O)O)cc2C2=CCCC2(C)C)c1
- Emax [1]: 92%
- pEC50 [2]: 6.28

SMILES: COc1ccc(F)c(-c2ccc(COc3ccc4c(c3F)[C@]3(CCC4)C[C@H]3C(=O)O)cc2[C@@H]2CCCC2(C)C)c1
- Emax [1]: 90%
- pEC50 [2]: 7.01

SMILES: COc1ccc(F)c(-c2ccc(COc3cccc([C@@H](CC(=O)O)C4CC4)c3)cc2C2=CCCC2(C)C)c1
- Activity (Mus musculus [3]): Active
- Vd [4]: 2 L/kg
- inhibition [5]: > 70%
- inhibition [6]: > 70%
- bioavailability [7]: 15%
- inhibition [8]: > 70%
- Vd [9]: 1.1 L/kg
- inhibition [10]: > 70%
- inhibition [11]: > 70%
- inhibition [12]: > 70%
- inhibition [13]: > 70%

SMILES: COc1ccc(F)c(-c2ccc(COc3ccc4c(c3)[C@]3(CCC4)C[C@H]3C(=O)O)cc2[C@@H]2CCCC2(C)C)c1
- Emax [1]: 101%
- pEC50 [2]: 7.04

SMILES: COc1ccc(F)c(-c2ccc(COc3ccc4c(c3)[C@H]3[C@@H](C4)[C@@H]3C(=O)O)cc2C2=CCCC2(C)C)c1
- Emax [1]: 99%
- pEC50 [2]: 5.85

SMILES: COc1ccc(F)c(-c2ccc(COc3ccc4c(c3)[C@@H]3[C@H](C4)[C@H]3C(=O)O)cc2C2=CCCC2(C)C)c1
- Emax [1]: 15%
- pEC50 [2]: < 4.52

SMILES: COc1ccc(F)c(-c2ccc(COc3ccc4c(c3)[C@]3(CC4)C[C@@H]3C(=O)O)cc2C2=CCCC2(C)C)c1
- Emax [1]: 5%
- pEC50 [2]: < 4.52

SMILES: COc1ccc(F)c(-c2ccc(COc3ccc4c(c3)[C@]3(CC4)C[C@H]3C(=O)O)cc2[C@@H]2CCCC2(C)C)c1
- fold change (FC) [14]: 2
- Activity [15]: Active
- Vd [4]: 1.4 L/kg
- half-life [16]: 4.2 h
- clearance [17]: 4.17 mL/min/kg
- Activity (Mus musculus [18]): Active
- inhibition [5]: < 70%
- Emax [1]: 101%
- bioavailability [19]: 69%
- Activity (Pancreatic islet [20]): Active
- inhibition [6]: < 70%
- bioavailability [7]: 28%
- inhibition [8]: < 70%
- Activity [21]: Active
- fold change (FC) [22]: 2
- Vd [9]: 0.7 L/kg
- inhibition [10]: < 70%
- Activity (Pancreatic islet [23]): Active
- inhibition [11]: < 70%
- inhibition [12]: < 70%
- Activity [24]: Active
- inhibition [13]: < 70%
- pEC50 [2]: 7.09
- clearance [25]: 14 mL/min/kg
- half-life [26]: 2.2 h
- Activity (Mus musculus [27]): 48%

SMILES: COc1ccc(F)c(-c2ccc(COc3ccc4c(c3)[C@@H]3[C@H](C4)[C@@H]3C(=O)O)cc2C2=CCCC2(C)C)c1
- Emax [1]: 10%
- pEC50 [2]: < 4.52

SMILES: COc1ccc(F)c(-c2ccc(COc3ccc4c(c3)[C@]3(CCC4)C[C@H]3C(=O)O)cc2C2=CCCC2(C)C)c1
- Emax [1]: 98%
- pEC50 [2]: 6.82

SMILES: COc1ccc(F)c(-c2ccc(COc3ccc4c(c3)[C@]3(CC4)C[C@H]3C(=O)O)cc2C2=CCCC2(C)C)c1
- Emax [1]: 100%
- pEC50 [2]: 6.74

SMILES: COc1ccc(F)c(-c2ccc(COc3ccc4c(c3)[C@]3(CC4)C[C@H]3C(=O)O)cc2[C@H]2CCCC2(C)C)c1
- Emax [1]: 104%
- pEC50 [2]: 6.67

SMILES: COc1ccc(F)c(-c2ccc(COc3ccc4c(c3)[C@@]3(CC4)C[C@@H]3C(=O)O)cc2C2=CCCC2(C)C)c1
- Emax [1]: 12%
- pEC50 [2]: < 4.52

SMILES: COc1ccc(F)c(-c2ccc(COc3ccc4c(c3)[C@]3(CCC4)CC[C@H]3C(=O)O)cc2C2=CCCC2(C)C)c1
- Emax [1]: 83%
- pEC50 [2]: 6.46

SMILES: COc1cc(-c2ccc(COc3ccc4c(c3F)[C@]3(CCC4)C[C@H]3C(=O)O)cc2[C@@H]2CCCC2(C)C)c(F)cn1
- Vd [4]: 0.4 L/kg
- half-life [16]: 4.1 h
- clearance [17]: 2.83 mL/min/kg
- inhibition [5]: < 70%
- Emax [1]: 90%
- bioavailability [19]: 44%
- inhibition [6]: < 70%
- bioavailability [7]: 61%
- inhibition [8]: < 70%
- Vd [9]: 0.8 L/kg
- inhibition [10]: < 70%
- inhibition [11]: < 70%
- inhibition [12]: < 70%
- inhibition [13]: < 70%
- pEC50 [2]: 6.98
- clearance [25]: 1.83 mL/min/kg
- half-life [26]: 3.7 h

SMILES: COc1ccc(F)c(-c2ccc(COc3ccc4c(c3)[C@@]3(CC4)C[C@H]3C(=O)O)cc2C2=CCCC2(C)C)c1
- Emax [1]: 27%
- pEC50 [2]: 5.42

SMILES: COc1ccc(F)c(-c2ccc(COc3ccc4c(c3)[C@H]3[C@@H](C4)[C@H]3C(=O)O)cc2C2=CCCC2(C)C)c1
- Emax [1]: 17%
- pEC50 [2]: < 4.52
